Source: patent US7317040B2, “Nitric oxide synthase inhibitor phosphate salt” (SmithKline Beecham Corporation, priority 2000, dated 2008)

Assay: Hygroscopicity: % weight change (w/w) against target relative humidity at 25 degrees C (moisture sorption isotherm)
Format: physicochemical
Description: The hygroscopicities of three samples of the compound of formula (I) monohydrate prepared in accordance with the above method were tested by measuring their % weight change (w/w) over a target relative humidity band of 0 to 90% at 25 degrees C.
To make these measurements, the following instruments and parameters were used: • Hiden IGASORP, Serial: IGA SA-040; • Hiden Intelligent Analyser, Model: HAS-022-120E, Serial: HALIGA-0042; • Flow=495 ml/min
The hydroscopicity of a sample of the compound of formula (I) trihydrate prepared in accordance with the above method was tested by measuring % weight change (w/w) over a target relative humidity band of 0 to 90% at 25° C.
The hygroscopicity of a sample of the dihydrochloride salt prepared in accordance with the above method was tested by measuring its % weight change (w/w) over a target relative humidity band of 30 to 80% at 25 degrees C.

Row | SMILES | uptake of atmospheric moisture (above 50% relative humidity, FIG. 4) | mass change (at 55% relative humidity) | mass change (at 60% relative humidity) | mass change (at 65% relative humidity) | mass change (over a relative humidity range of 30-75%) | uptake of atmospheric moisture (below a relative humidity of 70%, three samples, FIGS. 1 to 3)
1 | CC(=N)NCCSCC[C@H](N)C(=O)O.Cl [dihydrochloride salt, (2S)-2-amino4-{[2-(ethanimidoylamino)ethyl]thio}butanoic acid, compound with hydrochloric acid] | rapid uptake of atmospheric moisture | about 11% | about 24% | about 32% | about 47% | 
2 | CC(=N)NCCSCC[C@H](N)C(=O)O.O.O=P(O)(O)O [compound of formula (I) monohydrate, (2S)-2-amino-4-{[2-(ethanimidoylamino)ethyl]thio}butanoic acid, compound with phosphoric acid, monohydrate] |  |  |  |  |  | no significant uptake of atmospheric moisture
